The target of the assay is T1, PPARγ (Homo sapiens, UniProt P37231).
T1 sequence (P37231 235-505 limits assumed): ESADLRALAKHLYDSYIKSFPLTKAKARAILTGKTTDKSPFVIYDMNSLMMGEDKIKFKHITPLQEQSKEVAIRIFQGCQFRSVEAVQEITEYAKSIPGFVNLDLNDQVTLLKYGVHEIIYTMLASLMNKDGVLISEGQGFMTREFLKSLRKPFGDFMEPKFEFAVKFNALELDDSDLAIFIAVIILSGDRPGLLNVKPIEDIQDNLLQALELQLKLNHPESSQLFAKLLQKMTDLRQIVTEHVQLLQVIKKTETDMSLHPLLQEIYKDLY
As to the kind of experiment: fluorescence polarization competition binding.

The IC50 is the point on the concentration scale where inhibition reaches its midpoint. A higher IC50 goes with weaker potency in that assay. As for `Cc1c(C)n(Cc2ccc(-c3ccccc3C(=O)O)cc2)c2ccc(C(=O)NCc3cccc(O)c3)cc12` [WO95E, 4'-((5-((3-hydroxybenzyl)carbamoyl)-2,3-dimethyl-1H-indol-1-yl)methyl)-[1,1′-biphenyl]-2-carboxylic acid], the IC50 was about 11 nM.

Values taken from article PMC8627988 (Molecular Metabolism, 2021).
